# Test results taken from patent publication US12577226B2, “Compounds for treating Huntington's disease” (PTC THERAPEUTICS, INC., priority 2019, dated 2026).
# Test system: Endogenous Huntingtin Protein (capture with MW1 (expanded polyglutamine) or MAB2166 antibody)
# Assay: Endogenous Huntingtin Protein Assay (ELISA-based Meso Scale Discovery electrochemiluminescence assay)
# Assay type: cell-based
# Conditions: MSD electrochemiluminescence platform
# Protocol: Compounds of Formula (I), Formula (II), or Formula (III) were tested using the Meso Scale Discovery (MSD) Assay provided in International Application No. PCT/US2016/066042, filed on Dec. 11, 2016 and claiming priority to U.S. Provisional Application U.S. 62/265,652 filed on Dec. 10, 2015, the entire contents of which are incorporated herein by reference.
# The Endogenous Huntingtin Protein assay used in Example 1 was developed using the ELISA-based MSD electrochemiluminescence assay platform.
# Meso Scale Discovery (MSD) 96-well or 384-well plates were coated overnight at 4° C. with MW1 (expanded polyglutamine) or MAB2166 monoclonal antibody (for capture) at a concentration of 1 μg/mL in PBS (30 μL per well). Plates were then washed three times with 300 μL wash buffer (0.05% Tween-20 in PBS) and blocked (100 μL blocking buffer; 5% BSA in PBS) for 4-5 hours at room temperature with rotational shaking and then washed three times with wash buffer.
# Samples (25 μL) were transferred to the antibody-coated MSD plate and incubated overnight at 4° C. After removal of the lysates, the plate was washed three times with wash buffer, and 25 μL of #5656S (Cell signaling; rabbit monoclonal) secondary antibody (diluted to 0.25 μg/mL in 0.05% Tween-20 in blocking buffer) was added to each well and incubated with shaking for 1 Hour at room temperature. Following incubation with the secondary antibody, the wells were rinsed with wash buffer after which 25 μL of goat anti-rabbit SULFO TAG secondary detection antibody (required aspect of the MSD system) (diluted to 0.25 μg/mL in 0.05% Tween-20 in blocking buffer) was added to each well and incubated with shaking for 1 hour at room temperature. After rinsing three times with wash buffer, 150 μL of read buffer T with surfactant (MSD) were added to each empty well, and the plate was imaged on a SI 6000 imager (MSD) according to manufacturers' instructions provided for 96- or 384-well plates.
row,Molecule,IC50
1,"Cn1cnc(-c2cnc(-c3ccc(O[C@@H]4CC(C)(C)NC(C)(C)[C@@H]4F)nn3)c(O)c2)cc1=O.Cn1cnc(-c2cnc(-c3ccc(O[C@H]4CC(C)(C)NC(C)(C)[C@H]4F)nn3)c(O)c2)cc1=O (mixture of isomers) [Compound 42, 6-[6-(6-{[(3R,4S)-3-fluoro-2,2,6,6-tetramethylpiperidin-4-yl]oxy}pyridazin-3-yl)-5-hydroxypyridin-3-yl]-3-methylpyrimidin-4(3H)-one and 6-[6-(6-{[(3S,4R)-3-fluoro-2,2,6,6-tetramethylpiperidin-4-yl]oxy}pyridazin-3-yl)-5-hydroxypyridin-3-yl]-3-methylpyrimidin-4(3H)-one]",500 to 1000 nM
2,"CN[C@@H]1CCN(c2ccc(-c3ncc(-c4cnc(C)o4)cc3O)nn2)C1 [Compound 77, 2-{6-[(3R)-3-(methylamino)pyrrolidin-1-yl]pyridazin-3-yl}-5-(2-methyl-1,3-oxazol-5-yl)pyridin-3-ol]",≤ 100 nM
3,"CN(c1ncc(-c2ncc(-c3cn[nH]c3F)cc2O)nn1)C1CC(C)(C)NC(C)(C)C1 [Compound 143, 5-(5-fluoro-1H-pyrazol-4-yl)-2-{3-[methyl(2,2,6,6-tetramethylpiperidin-4-yl)amino]-1,2,4-triazin-6-yl}pyridin-3-ol]",100 to 500 nM
4,"Cc1ccc(Nc2cnc(-c3ccc(N4C[C@@H](C)N[C@@H](C)C4)nn3)c(O)c2)cn1 [Compound 125, 2-{6-[(3R,5S)-3,5-dimethylpiperazin-1-yl]pyridazin-3-yl}-5-[(6-methylpyridin-3-yl)amino]pyridin-3-ol]",100 to 500 nM
5,"2-(3-{[(3S,4S)-3-fluoro-2,2,6,6-tetramethylpiperidin-4-yl]amino}-1,2,4-triazin-6-yl)-5-(1H-pyrazol-4-yl)pyridin-3-ol and 2-(3-{[(3R,4R)-3-fluoro-2,2,6,6-tetramethylpiperidin-4-yl]amino}-1,2,4-triazin-6-yl)-5-(1H-pyrazol-4-yl)pyridin-3-ol [Compound 139]",≤ 100 nM
6,"Cn1cc2cc(-c3cnc(-c4ccc(N5CCN(C6CC6)CC5)nn4)c(O)c3)cc(F)c2n1 [Compound 100, 2-[6-(4-cyclopropylpiperazin-1-yl)pyridazin-3-yl]-5-(7-fluoro-2-methyl-2H-indazol-5-yl)pyridin-3-ol]",100 to 500 nM
7,"Cc1cn2cc(-c3cnc(-c4cnc(N5CCN(C)CC5)nn4)c(O)c3)cc(F)c2n1 [Compound 151, 5-(8-fluoro-2-methylimidazo[1,2-a]pyridin-6-yl)-2-[3-(4-methylpiperazin-1-yl)-1,2,4-triazin-6-yl]pyridin-3-ol]",≤ 100 nM
8,"C[C@]12CC[C@](C)(C[C@@H](Oc3ccc(-c4ncc(-n5nccn5)cc4O)nn3)C1)N2 [Compound 32, 2-(6-{[(1R,3s,5S)-1,5-dimethyl-8-azabicyclo[3.2.1]octan-3-yl]oxy}pyridazin-3-yl)-5-(2H-1,2,3-triazol-2-yl)pyridin-3-ol and 2-(6-{[(1S,3r,5R)-1,5-dimethyl-8-azabicyclo[3.2.1]octan-3-yl]oxy}pyridazin-3-yl)-5-(2H-1,2,3-triazol-2-yl)pyridin-3-ol]",≤ 100 nM
9,"CC1(C)CC(Oc2ccc(-c3ncc(-c4cn[nH]c4)cc3O)nn2)CC(C)(C)N1 [Compound 1, 5-(1H-pyrazol-4-yl)-2-{6-[(2,2,6,6-tetramethylpiperidin-4-yl)oxy]pyridazin-3-yl}pyridin-3-ol]",≤ 100 nM
10,"2-(6-{[(3R,4S)-3-fluoro-2,2,6,6-tetramethylpiperidin-4-yl]oxy}pyridazin-3-yl)-5-(imidazo[1,2-b]pyridazin-6-yl)pyridin-3-ol and 2-(6-{[(3S,4R)-3-fluoro-2,2,6,6-tetramethylpiperidin-4-yl]oxy}pyridazin-3-yl)-5-(imidazo[1,2-b]pyridazin-6-yl)pyridin-3-ol [Compound 49]",≤ 100 nM
11,"Oc1cc(-n2nccn2)cnc1-c1ccc(OC2CC3(CC3)NC3(CC3)C2)nn1 (centres unmarked) [Compound 73, 2-{6-[(4-azadispiro[2.1.2^5.3^3]decan-9-yl)oxy]pyridazin-3-yl}-5-(2H-1,2,3-triazol-2-yl)pyridin-3-ol]",100 to 500 nM
12,5-[(5-methylpyrazin-2-yl)amino]-2-{6-[(3R)-3-(propan-2-yl)piperazin-1-yl]pyridazin-3-yl}pyridin-3-ol and 5-[(5-methylpyrazin-2-yl)amino]-2-{6-[(3S)-3-(propan-2-yl)piperazin-1-yl]pyridazin-3-yl}pyridin-3-ol [Compound 133],≤ 100 nM
13,"5-(2,8-dimethylimidazo[1,2-a]pyridin-6-yl)-2-(6-{[(3R,4S)-3-fluoro-2,2,6,6-tetramethylpiperidin-4-yl]oxy}pyridazin-3-yl)pyridin-3-ol and 5-(2,8-dimethylimidazo[1,2-a]pyridin-6-yl)-2-(6-{[(3S,4R)-3-fluoro-2,2,6,6-tetramethylpiperidin-4-yl]oxy}pyridazin-3-yl)pyridin-3-ol [Compound 44]",≤ 100 nM
14,"COc1cc(-c2cnc(-c3ccc(OC4CC(C)(C)NC(C)(C)C4)nn3)c(O)c2)ncn1 [Compound 74, 5-(6-methoxypyrimidin-4-yl)-2-{6-[(2,2,6,6-tetramethylpiperidin-4-yl)oxy]pyridazin-3-yl}pyridin-3-ol]",≤ 100 nM
15,"CC(C)(C)NC1CCN(c2ncc(-c3ncc(-n4nccn4)cc3O)nn2)C1 (centres unmarked) [Compound 138, 2-{3-[3-(tert-butylamino)pyrrolidin-1-yl]-1,2,4-triazin-6-yl}-5-(2H-1,2,3-triazol-2-yl)pyridin-3-ol]",≤ 100 nM
16,"CC1(C)C[C@H](Oc2ccc(-c3ncc(-c4ncco4)cc3O)nn2)[C@H](F)C(C)(C)N1 (single isomer, unassigned) [Compound 12, 2-(6-{[(3R,4S)-3-fluoro-2,2,6,6-tetramethylpiperidin-4-yl]oxy}pyridazin-3-yl)-5-(1,3-oxazol-2-yl)pyridin-3-ol or 2-(6-{[(3S,4R)-3-fluoro-2,2,6,6-tetramethylpiperidin-4-yl]oxy}pyridazin-3-yl)-5-(1,3-oxazol-2-yl)pyridin-3-ol]",≤ 100 nM
17,"C[C@@H]1CN(c2ccc(-c3ncc(-c4cc(F)c5nn(C)cc5c4)cc3O)nn2)CCN1 [Compound 104, 5-(7-fluoro-2-methyl-2H-indazol-5-yl)-2-{6-[(3R)-3-methylpiperazin-1-yl]pyridazin-3-yl}pyridin-3-ol]",≤ 100 nM
18,"CC1(C)CC(Oc2ccc(-c3ncc(-c4nccs4)cc3O)nn2)CC2(CC2)N1 (centres unmarked) [Compound 79, 2-{6-[(5,5-dimethyl-4-azaspiro[2.5]octan-7-yl)oxy]pyridazin-3-yl}-5-(1,3-thiazol-2-yl)pyridin-3-ol]",≤ 100 nM
19,"2-(6-{[(3R,4S)-3-fluoro-2,2,6,6-tetramethylpiperidin-4-yl]oxy}pyridazin-3-yl)-5-(2-methylimidazo[1,2-b]pyridazin-6-yl)pyridin-3-ol and 2-(6-{[(3S,4R)-3-fluoro-2,2,6,6-tetramethylpiperidin-4-yl]oxy}pyridazin-3-yl)-5-(2-methylimidazo[1,2-b]pyridazin-6-yl)pyridin-3-ol [Compound 48]",≤ 100 nM
20,"Cn1cc2cc(-c3cnc(-c4ccc(O[C@H]5CC(C)(C)NC(C)(C)[C@H]5F)nn4)c(O)c3)cc(C#N)c2n1 (single isomer, unassigned) [Compound 34, 5-[6-(6-{[(3R,4S)-3-fluoro-2,2,6,6-tetramethylpiperidin-4-yl]oxy}pyridazin-3-yl)-5-hydroxypyridin-3-yl]-2-methyl-2H-indazole-7-carbonitrile or 5-[6-(6-{[(3S,4R)-3-fluoro-2,2,6,6-tetramethylpiperidin-4-yl]oxy}pyridazin-3-yl)-5-hydroxypyridin-3-yl]-2-methyl-2H-indazole-7-carbonitrile]",≤ 100 nM
21,"C[C@H]1CN(c2ccc(-c3ncc(-c4cc(F)c5nn(C)cc5c4)cc3O)nn2)CCN1 [Compound 103, 5-(7-fluoro-2-methyl-2H-indazol-5-yl)-2-{6-[(3S)-3-methylpiperazin-1-yl]pyridazin-3-yl}pyridin-3-ol]",≤ 100 nM
22,"C[C@@H]1CN(c2ccc(-c3ncc(-c4cc(C#N)c5nn(C)cc5c4)cc3O)nn2)C[C@H](C)N1 [Compound 78, 5-(6-{6-[(3R,5S)-3,5-dimethylpiperazin-1-yl]pyridazin-3-yl}-5-hydroxypyridin-3-yl)-2-methyl-2H-indazole-7-carbonitrile and 5-(6-{6-[(3S,5R)-3,5-dimethylpiperazin-1-yl]pyridazin-3-yl}-5-hydroxypyridin-3-yl)-2-methyl-2H-indazole-7-carbonitrile]",≤ 100 nM
23,"Cn1cc2cc(-c3cnc(-c4ccc(N5CC6CC5CN6)nn4)c(O)c3)cc(F)c2n1 (centres unmarked) [Compound 105, 2-[6-(2,5-diazabicyclo[2.2.1]heptan-2-yl)pyridazin-3-yl]-5-(7-fluoro-2-methyl-2H-indazol-5-yl)pyridin-3-ol]",≤ 100 nM
